Data as given in ChEMBL document CHEMBL1201862, “PubChem BioAssay data set” (2004).
One block for each compound: values may come before it. Active and inactive are the calls of the source.

What was measured:
[1] = cytotoxicity in HPDE-C7 cells, cell-based, fluorescence, HTS (AID 430); type: functional; conditions: Homo sapiens
[2] = target: T1, E3 ubiquitin-protein ligase XIAP (Homo sapiens, UniProt P98170); assay: Counter Screen using XIAP-Bir3 for Chemical Antagonists of Bir1/2 domains of IAP-family anti-apoptotic proteins. [Related pubchem assays (depositor defined):AID1018, AID1449, AID1514, AID1638, AID1749, AID1750, AID488957, AID488963]
[3] = target: T1, E3 ubiquitin-protein ligase XIAP; assay: XIAP antagonists, biochemical, IAP family, fluorescence polarization (AID 1018); type: functional
[4] = cytotoxicity in KRAS-transformed pancreatic duct cells, primary screen, cell-based, fluorescence, HTS (AID 431); type: functional; conditions: Homo sapiens;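 note: cell line used: HPDE-C7K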
[5] = target: T2, Calpain-2 catalytic subunit (Sus scrofa, UniProt P43367); assay: pig calpain II inhibitor potency, dose response, biochemical, fluorogenic peptide substrate (AID 1420); type: functional
T2 sequence (P43367 whole entry): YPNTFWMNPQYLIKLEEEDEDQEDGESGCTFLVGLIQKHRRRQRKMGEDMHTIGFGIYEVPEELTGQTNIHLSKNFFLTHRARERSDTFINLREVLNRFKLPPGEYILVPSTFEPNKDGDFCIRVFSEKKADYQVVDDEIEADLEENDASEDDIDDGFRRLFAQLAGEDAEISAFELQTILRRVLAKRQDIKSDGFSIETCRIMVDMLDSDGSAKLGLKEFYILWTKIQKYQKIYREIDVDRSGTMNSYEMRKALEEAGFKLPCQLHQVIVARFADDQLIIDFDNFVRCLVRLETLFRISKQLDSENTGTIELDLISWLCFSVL

[6] = target: T3, Kappa-type opioid receptor (Homo sapiens, UniProt P41145); assay: SAR analysis of small molecule agonists of the kappa opioid receptor via a luminescent beta-arrestin assay. [Related pubchem assays (depositor defined):AID1777, AID1786, AID1966, AID2133, AID2136, AID2348, AID2352, AID2357, AID2359, AID2370, AID2420, AID2478, AID2491, AID2492, AID2493, AID2497, AID2498, AID2500, AID449737, AID488822, AID488842]; type: functional
Mu-type opioid receptor [7] = target: T4, Mu-type opioid receptor (Homo sapiens, UniProt P35372); assay: MOR agonists by imaging, SAR follow-up, image-based (AID 2352); type: functional
[8] = target: T5, Delta-type opioid receptor (Homo sapiens, UniProt P41143); assay: DOR agonists, SAR follow-up, image-based (AID 2370); type: functional
[9] = target: T3, Kappa-type opioid receptor; assay: KOR antagonists by imaging, SAR follow-up, image-based (AID 2348); type: functional
Mu-type opioid receptor [10] = target: T4, Mu-type opioid receptor; assay: MOR antagonists, SAR follow-up, image-based (AID 2420); type: functional;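 note: compounds added before stimulation of receptor with agonist DAMGO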
[11] = target: T3, Kappa-type opioid receptor; assay: KOR agonist analogs, imaging readout, SAR follow-up, image-based (AID 2359); type: functional
[12] = target: T5, Delta-type opioid receptor; assay: DOR antagonists, SAR follow-up, image-based (AID 2357); type: functional
[13] = target: T6, RNA-binding protein pos-1 (Caenorhabditis elegans, UniProt G5EF15); assay: inhibitors of POS-1/mex-3 RNA binding, dose response, biochemical, fluorescence polarization (AID 1964);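 note: purified POS-1 fused to maltose binding protein made in E. coli; potency of compounds blocking POS-1 binding to fluorescent RNA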
T6 sequence (G5EF15 whole entry): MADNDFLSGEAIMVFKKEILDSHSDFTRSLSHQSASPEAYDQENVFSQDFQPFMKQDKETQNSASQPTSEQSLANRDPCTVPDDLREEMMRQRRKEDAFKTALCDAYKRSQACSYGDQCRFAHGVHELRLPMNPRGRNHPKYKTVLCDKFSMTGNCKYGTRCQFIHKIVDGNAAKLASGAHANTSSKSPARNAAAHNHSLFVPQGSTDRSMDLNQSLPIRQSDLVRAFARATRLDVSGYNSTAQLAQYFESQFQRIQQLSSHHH

[14] = target: Intestinal-type alkaline phosphatase (Mus musculus, UniProt P24822); assay: PubChem AID 488874; type: functional
[15] = target: T7, Intestinal-type alkaline phosphatase (Homo sapiens, UniProt P09923); assay: human intestinal alkaline phosphatase activators, dose response, biochemical, luminescence, uHTS hits (AID 463120); type: functional
[16] = target: T7, Intestinal-type alkaline phosphatase; assay: human IAP activators, dose response, biochemical, luminescent, uHTS hits, set 2 (AID 488817); type: functional;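 note: potency of activators that raise enzyme activity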
[17] = target: T8, Alkaline phosphatase, tissue-nonspecific isozyme (Homo sapiens, UniProt P05186); assay: TNAP enzyme activators, dose response, selectivity assay for human IAP activator project, biochemical, TNAP isozyme, human IAP uHTS hits (AID 488886); type: functional;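 note: potency of compounds raising TNAP activity as a selectivity check on IAP activators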
T8 sequence (P05186 whole entry): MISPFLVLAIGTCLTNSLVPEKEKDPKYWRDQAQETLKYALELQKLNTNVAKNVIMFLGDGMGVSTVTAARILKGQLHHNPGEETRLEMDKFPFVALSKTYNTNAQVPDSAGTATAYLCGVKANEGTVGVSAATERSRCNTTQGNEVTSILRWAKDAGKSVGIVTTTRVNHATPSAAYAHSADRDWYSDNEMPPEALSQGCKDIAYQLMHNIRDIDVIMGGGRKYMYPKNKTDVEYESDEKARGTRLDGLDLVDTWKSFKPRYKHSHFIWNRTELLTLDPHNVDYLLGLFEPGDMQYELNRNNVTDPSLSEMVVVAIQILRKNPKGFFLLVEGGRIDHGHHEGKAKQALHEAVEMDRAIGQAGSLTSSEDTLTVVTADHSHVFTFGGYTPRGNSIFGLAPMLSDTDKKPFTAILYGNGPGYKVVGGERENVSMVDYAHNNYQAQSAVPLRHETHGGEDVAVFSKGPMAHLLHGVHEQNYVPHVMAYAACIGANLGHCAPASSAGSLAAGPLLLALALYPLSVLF

Troponin, cardiac muscle = Troponin, cardiac muscle (Homo sapiens, UniProt P19429+P45379+P63316); assay: Fluorescence-based biochemical high throughput dose response assay for activators of the calcium sensitivity of cardiac Regulated Thin Filaments (RTF). [Related pubchem assays (depositor defined):AID493008, AID493018, AID504382, AID504383]; type: protein-complex assay
[18] = target: T9, Corticotropin-releasing factor receptor 2/Corticotropin-releasing factor-binding protein (Homo sapiens, UniProt P24387+Q13324); assay: activators of CRF receptor 2 with binding protein – uHTS hits, confirmation (AID 602473); type: functional; conditions: read-out: EC50_Mean
T9 sequence (Q13324 whole entry): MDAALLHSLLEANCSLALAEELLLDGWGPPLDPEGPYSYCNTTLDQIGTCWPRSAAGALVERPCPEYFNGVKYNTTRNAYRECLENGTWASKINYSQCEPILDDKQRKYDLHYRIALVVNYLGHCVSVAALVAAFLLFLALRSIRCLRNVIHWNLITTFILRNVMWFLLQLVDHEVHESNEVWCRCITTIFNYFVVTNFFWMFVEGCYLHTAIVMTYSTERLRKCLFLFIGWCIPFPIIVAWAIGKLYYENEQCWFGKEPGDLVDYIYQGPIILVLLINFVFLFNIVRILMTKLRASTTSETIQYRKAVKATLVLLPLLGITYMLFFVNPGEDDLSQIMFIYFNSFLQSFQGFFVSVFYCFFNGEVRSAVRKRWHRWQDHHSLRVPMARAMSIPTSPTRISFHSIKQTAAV
T9 sequence (P24387 whole entry): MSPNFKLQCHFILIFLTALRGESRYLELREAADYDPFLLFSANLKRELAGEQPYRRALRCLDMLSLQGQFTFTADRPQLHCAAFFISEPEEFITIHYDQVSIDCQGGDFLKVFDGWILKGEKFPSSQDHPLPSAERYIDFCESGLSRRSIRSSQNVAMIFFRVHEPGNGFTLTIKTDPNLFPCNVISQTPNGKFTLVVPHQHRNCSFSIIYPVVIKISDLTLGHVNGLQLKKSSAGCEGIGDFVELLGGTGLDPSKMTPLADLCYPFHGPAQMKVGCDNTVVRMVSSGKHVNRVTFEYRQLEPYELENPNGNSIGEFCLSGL

[19] = target: T10, Runt-related transcription factor 1/Core-binding factor subunit beta (Homo sapiens, UniProt Q01196+Q13951); assay: inhibitors of RUNX1 Runt–CBFb-SMMHC binding, primary screen, biochemical, FRET, Cerulean-Runt, Venus-CBFb-SMMHC, uHTS (AID 1434); type: protein assay;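 note: partner is the CBFb-SMMHC leukemia fusion protein rather than wild-type CBFb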
[20] = target: T10, Runt-related transcription factor 1/Core-binding factor subunit beta; assay: inhibitors of RUNX1 Runt–CBFb-SMMHC binding, biochemical, TR-FRET (AID 1438); type: protein assay
[21] = target: T11, Mannose-6-phosphate isomerase (Homo sapiens, UniProt P34949); assay: PMI enzyme inhibitors, confirmation, biochemical, fluorescence intensity (AID 1535)
T11 sequence (P34949 whole entry): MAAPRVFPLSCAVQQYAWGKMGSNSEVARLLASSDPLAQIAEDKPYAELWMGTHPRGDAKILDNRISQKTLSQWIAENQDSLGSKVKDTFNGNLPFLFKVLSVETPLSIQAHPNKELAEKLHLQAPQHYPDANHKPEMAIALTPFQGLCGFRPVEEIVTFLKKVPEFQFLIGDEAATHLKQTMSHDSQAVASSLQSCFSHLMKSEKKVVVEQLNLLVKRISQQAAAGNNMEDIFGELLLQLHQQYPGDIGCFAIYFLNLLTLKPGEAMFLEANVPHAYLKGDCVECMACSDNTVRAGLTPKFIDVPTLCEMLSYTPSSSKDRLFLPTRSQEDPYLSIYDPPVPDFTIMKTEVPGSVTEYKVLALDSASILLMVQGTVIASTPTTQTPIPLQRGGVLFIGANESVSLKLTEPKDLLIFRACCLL

Phosphomannomutase 2 = Phosphomannomutase 2 (Homo sapiens, UniProt O15305); assay: Counter screen SAR assay for PMM2 inhibitors via a fluorescence intensity assay. [Related pubchem assays (depositor defined):AID1545, AID1574]
[22] = target: T12, Tyrosine-protein phosphatase non-receptor type 7 (Homo sapiens, UniProt P35236); assay: HePTP (PTPN7) phosphatase inhibitor potency, SAR follow-up, biochemical, set 2 (AID 449736); type: functional
T12 sequence (P35236 whole entry): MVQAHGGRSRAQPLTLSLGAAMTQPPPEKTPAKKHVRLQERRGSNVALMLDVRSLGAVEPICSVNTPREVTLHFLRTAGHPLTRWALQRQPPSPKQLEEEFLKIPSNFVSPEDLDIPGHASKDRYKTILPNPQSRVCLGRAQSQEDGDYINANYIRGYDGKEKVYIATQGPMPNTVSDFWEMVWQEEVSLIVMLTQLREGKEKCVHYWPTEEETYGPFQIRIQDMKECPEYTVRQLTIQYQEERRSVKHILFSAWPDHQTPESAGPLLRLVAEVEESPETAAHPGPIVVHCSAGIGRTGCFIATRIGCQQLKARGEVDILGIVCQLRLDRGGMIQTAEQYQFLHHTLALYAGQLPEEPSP

[23] = target: Sphingosine 1-phosphate receptor 1 (Homo sapiens, UniProt P21453); assay: Fluorescence-based counterscreen assay for S1P4 agonists: Cell-based dose response high throughput screening assay to identify agonists of the Sphingosine 1-Phosphate Receptor 1 (S1P1). [Related pubchem assays (depositor defined):AID1509, AID1523, AID1801, AID463107, AID463118, AID463119, AID463122, AID463123, AID463129, AID463225, AID504400, AID504460]; type: functional
[24] = target: T13, Sphingosine 1-phosphate receptor 4 (Homo sapiens, UniProt O95977); assay: Fluorescence dose response cell-based high throughput screening assay for agonists of the Sphingosine 1-Phosphate Receptor 4 (S1P4). [Related pubchem assays: 1509 (Primary screen.), 1523 (Confirmation screen in triplicates.)]; type: functional
T13 sequence (O95977 whole entry): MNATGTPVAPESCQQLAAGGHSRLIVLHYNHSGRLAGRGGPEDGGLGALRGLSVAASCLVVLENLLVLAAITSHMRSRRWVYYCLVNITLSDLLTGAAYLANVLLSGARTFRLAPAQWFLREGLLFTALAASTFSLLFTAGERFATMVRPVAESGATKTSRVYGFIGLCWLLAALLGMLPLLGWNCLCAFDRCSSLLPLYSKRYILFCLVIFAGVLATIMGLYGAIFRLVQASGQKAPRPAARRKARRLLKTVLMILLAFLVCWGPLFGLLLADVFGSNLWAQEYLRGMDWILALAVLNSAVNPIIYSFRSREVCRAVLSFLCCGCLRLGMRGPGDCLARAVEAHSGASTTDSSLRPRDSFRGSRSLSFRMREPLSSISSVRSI

SMILES: COc1ccccc1-c1nnc(SCC(=O)NCc2c(C)c(Cl)cc(C(C)C)c2O)o1
- EC50 [1]: 10.1 µM (active)
- IC50 [2]: > 100 µM (inactive)
- IC50 [3]: > 100 µM (not active)
- EC50 [4]: 12 µM (active)
- IC50 [5]: 15.8 µM (not active)

- EC50 [6]: > 10 µM (inactive)
- EC50 (Mu-type opioid receptor [7]): > 32 µM (inactive)
- EC50 [8]: > 32 µM (inactive)
- IC50 [9]: > 32 µM (inactive)
- IC50 (Mu-type opioid receptor [10]): > 32 µM (inactive)
- EC50 [11]: > 32 µM (inactive)
- IC50 [12]: > 32 µM (inactive)
SMILES: COc1ccc(C)cc1NC(=O)CSc1nnc(-c2ccccn2)n1Cc1ccco1

- EC50 [13]: 25.4 µM (active)
- IC50 [14]: 54.3 µM (active)
- EC50 [15]: 12.8 µM (active)
- EC50 [16]: 12.1 µM (active)
- EC50 [17]: > 100 µM (inactive)
SMILES: Cc1n[nH]c(S/C(=C/c2ccc(-c3ccc(Cl)cc3)o2)C(=O)O)n1

- EC50 (Troponin, cardiac muscle): 2.18 µM (active)
- EC50 [18]: 11.5 µM (active)
SMILES: Cc1ccc[n+](-c2[n-]c(=O)sc2C=O)c1

SMILES: CCNc1sc(C(=O)c2cccs2)c(N)c1-c1nc2ccccc2s1
- IC50 [19]: > 100 µM (inactive)
- IC50 [20]: 63.2 µM (inactive)

- IC50 [21]: 23.6 µM (active)
- IC50 (Phosphomannomutase 2): > 100 µM (inactive)
SMILES: Clc1nss/c1=N\c1ccc2ncccc2c1

- IC50 [22]: > 100 µM (inactive)
SMILES: NS(=O)(=O)c1ccc(NC(=O)N2CCN(Cc3ccccc3)CC2)cc1

- EC50 [23]: > 5.53 µM (inactive)
- EC50 [24]: > 49.8 µM (not active)
SMILES: CCCN(CCC)c1ccc(/C=C/c2ccc3cc(OCC)ccc3n2)cc1
